Measured values as given in ChEMBL document CHEMBL1201862, “PubChem BioAssay data set” (2004).
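Protocol summary: plate cells (96-well), add compound at 5 concentrations, incubate 48 h, interpolate endpoints linearly. GI50 marks 50% less growth.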 Activity calls are given as the source filed them. No stated cut-off is given here; in the data, active = GI50 up to about 1.1 µM and inactive = higher.

What was measured:
Assay in all cases: NCI tumour cell line growth inhibition, 48 h
786-0 = system: 786-0
BT-549 = system: BT-549
Hs-578T = system: Hs-578T
MDA-N = system: MDA-N
PC-3 = system: PC-3
T47D = system: T47D
DMS-273 = system: DMS-273
KM-20L2 = system: KM-20L2

Measured: GI50

O=[N+]([O-])C(/C=C(\Cl)[N+](=O)[O-])=C1Nc2ccccc2N1
inactive: 786-0 52.4 µM | BT-549 42 µM | Hs-578T 48.9 µM | MDA-N 59.8 µM | PC-3 46.3 µM | T47D 17.9 µM

C=C1C(=O)C[C@@]23CCC[C@@]12CC(OCOC)C3 (stereo partly specified)
inactive: DMS-273 2.4 µM | KM-20L2 2.83 µM

CN(O)C(=O)CCCC(=O)NCC(C)(C)CNC(=O)CCCC(=O)N(C)O
inactive: Hs-578T > 100 µM | MDA-N > 100 µM | PC-3 > 100 µM | T47D > 100 µM

NC(=O)c1ncn2c1NC(=O)CC2
inactive: DMS-273 > 100 µM | KM-20L2 > 100 µM

O=P(CCOc1ccccc1OCCP(=O)(c1ccccc1)c1ccc2c(c1)OCCOCCOCCOCCO2)(c1ccccc1)c1ccc2c(c1)OCCOCCOCCOCCO2 (stereo unspecified)
inactive: 786-0 > 100 µM | DMS-273 > 100 µM | KM-20L2 > 100 µM

Cc1nc2cccc(F)c2c(=O)n1C1CCCCNC1=O (stereo unspecified)
inactive: 786-0 > 10 µM | Hs-578T > 10 µM | MDA-N > 10 µM | PC-3 > 10 µM | T47D > 10 µM

C=C1CC(OC)(C(O)C(=O)N[C@H]2OCO[C@H]3C2O[C@H](C[C@@H](COC)OC)C(C)(C)C3OC)O[C@H](C)[C@@H]1C (stereo partly specified)
active: DMS-273 < 0.00482 µM | KM-20L2 < 0.00482 µM

COc1ccc(C2CC(c3sc(Nc4ccc(C)cc4)nc3C)=NN2)cc1 (stereo unspecified)
inactive: DMS-273 18.8 µM | KM-20L2 16.1 µM

NC(=O)c1csc(C2O[C@@H](COP(=O)(O)OP(=O)(O)OC[C@H]3OC(n4cnc5c(N)ncnc54)[C@H](O)[C@@H]3O)[C@H](O)[C@@H]2O)n1 (stereo partly specified)
inactive: 786-0 57.1 µM | DMS-273 99.5 µM | KM-20L2 > 100 µM

CON(C)C(=O)C(Cc1ccccc1)NC(=O)OCc1ccccc1 (stereo unspecified)
inactive: DMS-273 > 100 µM | KM-20L2 > 100 µM

NC(=S)N/N=C1\CC(c2ccccc2)Nc2ccccc21 (stereo unspecified)
inactive: DMS-273 32.3 µM | KM-20L2 18.5 µM

COc1ccc(C2=NN(c3nsc4ccccc34)C(=O)CC2)cc1
inactive: DMS-273 > 100 µM | KM-20L2 > 100 µM

CCOP(=Nc1ccc(N(C)C)cc1)(OCC)OCC
inactive: BT-549 > 100 µM | Hs-578T > 100 µM | MDA-N > 100 µM | PC-3 > 100 µM

C=CCn1c(=O)ccn(COCCO)c1=O
inactive: BT-549 > 100 µM | Hs-578T > 100 µM | MDA-N > 100 µM | PC-3 > 100 µM | T47D > 100 µM

CC(=O)O[C@@H]1C2=C(C3=C([O-])C4=CC=CC(=O)C4C(=O)C3=C2[N+]#N)[C@H](OC(C)=O)[C@@H](OC(C)=O)[C@]1(C)O (stereo partly specified)
active: 786-0 0.306 µM | BT-549 0.631 µM | Hs-578T 0.173 µM | MDA-N 0.361 µM | PC-3 0.417 µM

O=NN(CCCl)C(=O)N[C@H]1CC[C@H](C(=O)O)CC1
inactive: DMS-273 > 100 µM | KM-20L2 > 100 µM
